Results as given in the supplement of paper PMC7661543.
± gives the standard deviation of the averaged measurements.

Tests used:
Test in all cases: relative cell number vs DMSO control (72 h) (% of DMSO); higher = less growth inhibition (more cells)
Conditions in all cases: sgRNA knockout: sgNT
HCC-38 = tested on: HCC-38
How it was run: (§1)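 After 6 days of induction with 100 ng/mL doxycycline, pooled Cas9-engineered breast cancer lines were plated at 5000 cells per 96-well and dosed in duplicate for 72 h at four 10-fold concentrations (10 nM–10 μM or 1 nM–1 μM). Cell numbers came from sequenced sgRNA and cell-line barcode reads, interpolated against 293T spike-in standard curves made for each sample. Relative cell number is reported against the median of DMSO-treated samples as a percent.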

SKBR3 = tested on: SKBR3
How it was run: as §1

BT-20 = tested on: BT-20
How it was run: as §1

ZR-75-1 = tested on: ZR-75-1
How it was run: as §1

MDA-MB-231 = tested on: MDA-MB-231
How it was run: as §1

| Compound | relative cell number (HCC-38; 10 nM) | relative cell number (HCC-38; 100 nM) | relative cell number (HCC-38; 1000 nM) | relative cell number (HCC-38; 10000 nM) | relative cell number (SKBR3; 10 nM) | relative cell number (SKBR3; 100 nM) | relative cell number (SKBR3; 1000 nM) | relative cell number (SKBR3; 10000 nM) | relative cell number (BT-20; 10 nM) | relative cell number (BT-20; 100 nM) | relative cell number (BT-20; 1000 nM) | relative cell number (BT-20; 10000 nM) | relative cell number (ZR-75-1; 10 nM) | relative cell number (ZR-75-1; 100 nM) | relative cell number (ZR-75-1; 1000 nM) | relative cell number (ZR-75-1; 10000 nM) | relative cell number (MDA-MB-231; 10 nM) | relative cell number (MDA-MB-231; 100 nM) | relative cell number (MDA-MB-231; 1000 nM) | relative cell number (MDA-MB-231; 10000 nM) | relative cell number (HCC-38; 1 nM) | relative cell number (SKBR3; 1 nM) | relative cell number (BT-20; 1 nM) | relative cell number (ZR-75-1; 1 nM) | relative cell number (MDA-MB-231; 1 nM) |
| --- | --- | --- | --- | --- | --- | --- | --- | --- | --- | --- | --- | --- | --- | --- | --- | --- | --- | --- | --- | --- | --- | --- | --- | --- | --- |
| CN1CCc2c(c3ccccc3n2Cc2ccc(C(=O)NO)cc2)C1 [TubastatinA] | 122 ± 20 | 88.7 ± 16 | 114 ± 8.2 | 66 ± 2.6 | 104 ± 5.4 | 59.2 ± 14 | 86.4 ± 15 | 25.7 ± 14 | 98.7 ± 12 | 97.3 ± 11 | 116.9 ± 0.46 | 81.4 ± 33 | 80 ± 12 | 74 ± 43 | 93.1 ± 40 | 40.4 ± 1.6 | 81.3 ± 19 | 95.1 ± 14 | 138 ± 27 | 50.6 ± 17 | – | – | – | – | – |
| Cc1onc(-c2ccccc2)c1-c1ccc(S(N)(=O)=O)cc1 [Valdecoxib] | 111 ± 12 | 91.8 ± 8.2 | 99.8 ± 13 | 98.4 ± 16 | 76.8 ± 16 | 86.5 ± 37 | 88.5 ± 38 | 124 ± 34 | 101 ± 5.5 | 107 ± 17 | 102 ± 21 | 99.62 ± 0.51 | 95.3 ± 73 | 76.8 ± 16 | 102 ± 37 | 112 ± 1.4 | 100 ± 22 | 113 ± 13 | 87.1 ± 4.7 | 82.6 ± 1.5 | – | – | – | – | – |
| C[C@]1(c2nc3c(C(N)=O)cccc3[nH]2)CCCN1 [Veliparib] | 106 ± 11 | 104 ± 4.2 | 107 ± 18 | 89.6 ± 4.9 | 107 ± 26 | 104 ± 11 | 97.2 ± 27 | 72.7 ± 38 | 109 ± 41 | 116 ± 15 | 118 ± 38 | 91.9 ± 25 | 88.9 ± 56 | 96.9 ± 12 | 97.1 ± 24 | 51.4 ± 4.1 | 135 ± 51 | 144 ± 30 | 148 ± 33 | 97.2 ± 8.6 | – | – | – | – | – |
| CC[C@]1(O)C[C@H]2CN(CCc3c([nH]c4ccccc34)[C@@](C(=O)OC)(c3cc4c(cc3OC)N(C=O)[C@H]3[C@@](O)(C(=O)OC)[C@H](OC(C)=O)[C@]5(CC)C=CCN6CC[C@]43[C@@H]65)C2)C1 [Vincristine] | 23.2 ± 4 | 22.5 ± 2.4 | 21.8 ± 2.9 | 21.1 ± 1.5 | 5.25 ± 0.24 | 3.5 ± 2.5 | 8.88 ± 0.92 | 6.97 ± 4.4 | 34.7 ± 4.6 | 22.5 ± 6.4 | 28.17 ± 0.087 | 34.5 ± 1.1 | 36.6 ± 5.9 | 22.3 ± 1.7 | 9.69 ± 0.85 | 17.1 ± 4.5 | 30.7 ± 3.3 | 14.4 ± 2.7 | 9.81 ± 3.5 | 8.55 ± 3.1 | – | – | – | – | – |
| CCC[C@H](NC(=O)/C(C#N)=C/c1cccc(Br)n1)c1ccccc1 [WP1130] | 92.9 ± 2.6 | 103 ± 6.8 | 83.8 ± 11 | 6.78 ± 2 | 84 ± 36 | 51.2 ± 6.4 | 111 ± 7.9 | 8.93 ± 1.9 | 101 ± 53 | 78.7 ± 6.8 | 100 ± 7 | 8.98 ± 1.4 | 96.9 ± 44 | 59.7 ± 4.9 | 92.2 ± 22 | 6.81 ± 2.8 | 100 ± 26 | 87.3 ± 10 | 116 ± 47 | 11.7 ± 3.7 | – | – | – | – | – |
| COCC[n+]1c2c(n(Cc3cnccn3)c1C)C(=O)c1ccccc1C2=O [YM155] | 20.2 ± 2 | 4.12 ± 0.77 | 5.13 ± 0.38 | – | 62.2 ± 7.2 | 6.9 ± 0.62 | 4.71 ± 4.5 | – | 41.8 ± 5 | 4.66 ± 1.7 | 5.07 ± 2.5 | – | 23.9 ± 13 | 6.08 ± 4.9 | 3.11 ± 2.6 | – | 27.1 ± 0.85 | 6.58 ± 1.3 | 4.86 ± 1.3 | – | 54.7 ± 3.2 | 79.4 ± 20 | 88.6 ± 16 | 87.2 ± 46 | 75.1 ± 3.9 |
